{"source": "patent US10940201B2", "about": "“Nucleic acid derivative having immunostimulatory activity” (Shionogi & Co., Ltd., priority 2015, dated 2021)", "key": {"TRP2-specific CTL": {"test_system": "TRP2-specific CTL", "assay": "CTL inducibility of TRP2 peptide vaccine with adjuvant (tetramer staining)", "format": "in vivo, C57BL/6JJcl mice", "procedure": "C57BL/6JJcl mice (6 to 8 weeks old) were purchased from CLEA Japan, Inc.\nan adjuvant of the present invention or the well-known CpG ODN\nThe specific immunity was induced by vaccinating a mouse twice at 7 days intervals. Each vaccine was that 100 μg of TRP2 peptide, and 1.57 or 4.71 nmol of an adjuvant of the present invention or well-known CpG ODN, were dissolved in 1×PBS. 100 μL of the vaccine was administered subcutaneous injection on the flank of a mouse.\n100 μL of the emulsion vaccine was administered subcutaneous injection on the flank of a mouse twice at 7 days intervals.\nOn 7 days after second vaccination, the blood was collected, red blood cells was removed by BD Pharm Lyse (BD pharmingen), and the white blood cells were suspended in FACS buffer (1% fetal bovine serum, 2 mM PBS with EDTA). Anti-mouse CD16/32 monoclonal antibody (BioXcell) was added thereto, and Fc receptor blocking was carried out at 4° C. for 30 minutes. […] Then, staining was carried out with DAPI (Invitrogen) and the cells were washed twice with FACS buffer. It was resuspended in FACS buffer and analyzed by FACS verse Flow Cytometer (BD bioscience) and FAC Suite software (BD bioscience). For analysis, after DAPI negative fraction was gated, white blood cells fraction were provided using forward and side-way scattering as indicators. In the white blood cells fraction, both positive cells of Alexa 647-CD8 and PE-H-2Kb Tetramer were defined as CTLs. CTL ratio in white blood cells was used for evaluation.\nAfter calculation of the average CTL inducibility of each group per experiment, the ratio against average value of CTL inducibility of ssCpG ODN, ODN1826 (SEQ-1) or ODN2006 (SEQ-49) as a control was calculated.\nIn the case of an adjuvant comprising ODN1826 (Average of CTL inducibility of the adjuvant group)/(Average of CTL inducibility of the ODN1826 group)=the ratio against average value In the case of an adjuvant comprising ODN2006 (Average of CTL inducibility of the adjuvant group)/(Average of CTL inducibility of the ODN2006 group)=the ratio against average value\nCTL inducibility of each adjuvant was shown when CTL inducibility of ssCpG ODN was taken as 1, so the bigger value means the higher CTL inducibility."}, "B16F10 cells": {"test_system": "B16F10 cells", "assay": "Anti-tumor effect of TRP2 peptide vaccine using an adjuvant", "format": "in vivo, mouse", "procedure": "After immunization by TRP2 peptide vaccine, B16F10 cells (ATTC) which is mouse melanoma expressing TRP2 protein was subcutaneously transplanted to evaluate anti-tumor effect. […] The major and minor axes of the engrafted tumor were measured every 2 to 3 days, and the tumor volume was calculated by the formula: (major axis×minor axis^2)/2 Calculation method for indicators of anti-tumor effect For the adjuvant comprising ODN1826 100·(average tumor volume of adjuvant group)/(average tumor volume of ODN1826 group) For the adjuvant comprising ODN2006 100·(average tumor volume of adjuvant group)/(average tumor volume of ODN2006 group)"}}}
{"substance": "Amph1826 [SEQ-2]", "values": [{"measurement": "Ratio of average value of antigen-specific CTL", "setting": "TRP2-specific CTL; Table 34, 1.57 nmol/head, ODN1826 (SEQ-1) group = 1", "result": 1.68}, {"measurement": "Ratio of average value of antigen-specific CTL", "setting": "TRP2-specific CTL; Table 36, 1.57 nmol/head (Montanide 100 μL), ODN1826 (SEQ-1) group = 1", "result": 3.23}, {"measurement": "Ratio of average value of antigen-specific CTL", "setting": "TRP2-specific CTL; Table 37, 1.57 nmol/head, ODN1826 (SEQ-1) group = 1", "result": 3.11}, {"measurement": "CTL inducibility (in words)", "setting": "TRP2-specific CTL; adjuvants comprising ODN1826", "result": "higher CTL inducibility than ODN1826"}, {"measurement": "tumor inhibition rate compared to ODN1826", "setting": "B16F10 cells; Day 12 after transplantation, Result 4-B, FIG. 3", "result": "about 3.5%"}, {"measurement": "tumor inhibition rate compared to ODN1826", "setting": "B16F10 cells; Day 12 after transplantation, Result 6-B, FIG. 4", "result": 64.3, "unit": "%"}, {"measurement": "tumor inhibition rate compared to ODN1826", "setting": "B16F10 cells; Day 14 after transplantation, Result 7-B, FIG. 5", "result": "about 72.6%"}, {"measurement": "Tumor inhibition rate (Day 14 after transplantation)", "setting": "B16F10 cells; Table 37, 1.57 nmol/head, compared to ODN1826 (SEQ-1)", "result": 72.64, "unit": "%"}]}
{"substance": "ODN2006 [SEQ-49]", "values": [{"measurement": "Ratio of average value of antigen-specific CTL", "setting": "TRP2-specific CTL; Table 38, 4.71 nmol/head, ODN2006 (SEQ-49) group = 1", "result": 1.00}, {"measurement": "Ratio of average value of antigen-specific CTL", "setting": "TRP2-specific CTL; Table 39, 4.71 nmol/head, ODN2006 (SEQ-49) group = 1", "result": 1.00}, {"measurement": "Ratio of average value of antigen-specific CTL", "setting": "TRP2-specific CTL; Table 40, 4.71 nmol, ODN2006 (SEQ-49) group = 1", "result": 1.00}, {"measurement": "Ratio of average value of antigen-specific CTL", "setting": "TRP2-specific CTL; Table 41, 4.71 nmol, ODN2006 (SEQ-49) group = 1", "result": 1.00}, {"measurement": "Ratio of average value of antigen-specific CTL", "setting": "TRP2-specific CTL; Table 42, 4.71 nmol, ODN2006 (SEQ-49) group = 1", "result": 1.00}, {"measurement": "Ratio of average value of antigen-specific CTL", "setting": "TRP2-specific CTL; Table 43, 4.71 nmol, ODN2006 (SEQ-49) group = 1", "result": 1.00}, {"measurement": "Ratio of average value of antigen-specific CTL", "setting": "TRP2-specific CTL; Table 44, 4.71 nmol, ODN2006 (SEQ-49) group = 1", "result": 1.00}, {"measurement": "Ratio of average value of antigen-specific CTL", "setting": "TRP2-specific CTL; Table 45, 4.71 nmol, ODN2006 (SEQ-49) group = 1", "result": 1.00}, {"measurement": "Ratio of average value of antigen-specific CTL", "setting": "TRP2-specific CTL; Table 46, 4.71 nmol, ODN2006 (SEQ-49) group = 1", "result": 1.00}, {"measurement": "Ratio of average value of antigen-specific CTL", "setting": "TRP2-specific CTL; Table 47, 4.71 nmol, ODN2006 (SEQ-49) group = 1", "result": 1.00}, {"measurement": "Ratio of average value of antigen-specific CTL", "setting": "TRP2-specific CTL; Table 48, 4.71 nmol, ODN2006 (SEQ-49) group = 1", "result": 1.00}, {"measurement": "Ratio of average value of antigen-specific CTL", "setting": "TRP2-specific CTL; Table 49, 4.71 nmol, ODN2006 (SEQ-49) group = 1", "result": 1.00}, {"measurement": "Ratio of average value of antigen-specific CTL", "setting": "TRP2-specific CTL; Table 50, 4.71 nmol, ODN2006 (SEQ-49) group = 1", "result": 1.00}, {"measurement": "Ratio of average value of antigen-specific CTL", "setting": "TRP2-specific CTL; Table 51, 4.71 nmol, ODN2006 (SEQ-49) group = 1", "result": 1.00}, {"measurement": "Ratio of average value of antigen-specific CTL", "setting": "TRP2-specific CTL; Table 52, 4.71 nmol, ODN2006 (SEQ-49) group = 1", "result": 1.00}, {"measurement": "Ratio of average value of antigen-specific CTL", "setting": "TRP2-specific CTL; Table 53, 4.71 nmol, ODN2006 (SEQ-49) group = 1", "result": 1.00}, {"measurement": "Ratio of average value of antigen-specific CTL", "setting": "TRP2-specific CTL; Table 54, 4.71 nmol, ODN2006 (SEQ-49) group = 1", "result": 1.00}, {"measurement": "Ratio of average value of antigen-specific CTL", "setting": "TRP2-specific CTL; Table 55, 4.71 nmol, ODN2006 (SEQ-49) group = 1", "result": 1.00}, {"measurement": "Ratio of average value of antigen-specific CTL", "setting": "TRP2-specific CTL; Table 57, 4.71 nmol, ODN2006 (SEQ-49) group = 1", "result": 1.00}, {"measurement": "Ratio of average value of antigen-specific CTL", "setting": "TRP2-specific CTL; Table 58, 4.71 nmol, ODN2006 (SEQ-49) group = 1", "result": 1.00}, {"measurement": "Ratio of average value of antigen-specific CTL", "setting": "TRP2-specific CTL; Table 59, 4.71 nmol, ODN2006 (SEQ-49) group = 1", "result": 1.00}, {"measurement": "Ratio of average value of antigen-specific CTL", "setting": "TRP2-specific CTL; Table 60, 4.71 nmol, ODN2006 (SEQ-49) group = 1", "result": 1.00}, {"measurement": "Ratio of average value of antigen-specific CTL", "setting": "TRP2-specific CTL; Table 61, 4.71 nmol, ODN2006 (SEQ-49) group = 1", "result": 1.00}, {"measurement": "Ratio of average value of antigen-specific CTL", "setting": "TRP2-specific CTL; Table 62, 4.71 nmol, ODN2006 (SEQ-49) group = 1", "result": 1.00}, {"measurement": "Ratio of average value of antigen-specific CTL", "setting": "TRP2-specific CTL; Table 63, 4.71 nmol, ODN2006 (SEQ-49) group = 1", "result": 1.00}, {"measurement": "Ratio of average value of antigen specific CTL", "setting": "TRP2-specific CTL; Table 64, 4.71 nmol, ODN2006 (SEQ-49) group = 1", "result": 1.00}, {"measurement": "Ratio of average value of antigen-specific CTL", "setting": "TRP2-specific CTL; Table 67, 4.71 nmol, ODN2006 (SEQ-49) group = 1", "result": 1.00}, {"measurement": "Ratio of average value of antigen-specific CTL", "setting": "TRP2-specific CTL; Table 68, 4.71 nmol, ODN2006 (SEQ-49) group = 1", "result": 1.00}, {"measurement": "effect of inhibition on tumor progression of B16F10 cells (in words)", "setting": "B16F10 cells", "result": "little effect of inhibition on tumor progression of B16F10 cells"}, {"measurement": "Tumor inhibition rate (Day 12 after transplantation)", "setting": "B16F10 cells; Table 41, 4.71 nmol, compared to ODN2006 (SEQ-49)", "result": 0.00, "unit": "%"}, {"measurement": "Tumor inhibition rate (Day 12 after transplantation)", "setting": "B16F10 cells; Table 42, 4.71 nmol, compared to ODN2006 (SEQ-49)", "result": 0.00, "unit": "%"}, {"measurement": "Tumor inhibition rate (Day 14 after transplantation)", "setting": "B16F10 cells; Table 43, 4.71 nmol, compared to ODN2006 (SEQ-49)", "result": 0.00, "unit": "%"}, {"measurement": "Tumor inhibition rate (Day 14 after transplantation)", "setting": "B16F10 cells; Table 45, 4.71 nmol, compared to ODN2006 (SEQ-49)", "result": 0.00, "unit": "%"}, {"measurement": "Tumor inhibition rate (Day 14 after transplantation)", "setting": "B16F10 cells; Table 46, 4.71 nmol, compared to ODN2006 (SEQ-49)", "result": 0.00, "unit": "%"}, {"measurement": "Tumor inhibition rate (Day 14 after transplantation)", "setting": "B16F10 cells; Table 48, 4.71 nmol, compared to ODN2006 (SEQ-49)", "result": 0.00, "unit": "%"}]}
